The assay addresses T1, human MCH-1R (Homo sapiens, UniProt Q99705).
T1 construct: expressed in transfected cells; host or cells: CHO-K1 (American Type Culture Collection)
Put plainly: MCH binding inhibition test. The note with it: membranes of MCH-1R expressing CHO-K1 cells, 50 pM [125I]MCH, 25° C., one hour; read-out: IC50 (50% inhibition concentration to specific [125I]MCH binding). The protocol: A human MCH-1R encoding cDNA sequence [FEBS Letters, Vol. 398, p. 253 (1996); Biochimica et Biophisica Acta, Vol. 1401, p. 216 (1998)] was cloned to plasmid vector pEF/mic/cyto (Invitrogen Corporation). The obtained expression vector was transfected to a host cell CHO-K1 (American Type Culture Collection) using lipofectamine plus reagent (Life Technology Inc.) to provide MCH-1R expression cells.
Membrane samples prepared from the MCH-1R expression cells were incubated with each test compound and 50 pM of [^125I]MCH (NEN Co.), in an assay buffer (50 mM Tris buffer comprising 10 mM magnesium chloride, 2 mM ethylenediamine tetraacetate, 0.01% bacitracin and 0.2% bovine serum albumin; pH 7.4) at 25° C. for an hour, followed by filtration through Glass Filter GF/C (Wattman Co.). After washing the glass filter with 50 mM Tris buffer (pH7.4) comprising 10 mM magnesium chloride, 2 mM ethylenediamine tetraacetate and 0.04% Tween-20, radio activity on the glass filter was measured. Non-specific binding was measured in the presence of 1 μM human MCH and 50% inhibition concentration (IC50 value) of each test compound to specific [^125I] MCH binding was determined.
T1 sequence (Q99705 whole entry): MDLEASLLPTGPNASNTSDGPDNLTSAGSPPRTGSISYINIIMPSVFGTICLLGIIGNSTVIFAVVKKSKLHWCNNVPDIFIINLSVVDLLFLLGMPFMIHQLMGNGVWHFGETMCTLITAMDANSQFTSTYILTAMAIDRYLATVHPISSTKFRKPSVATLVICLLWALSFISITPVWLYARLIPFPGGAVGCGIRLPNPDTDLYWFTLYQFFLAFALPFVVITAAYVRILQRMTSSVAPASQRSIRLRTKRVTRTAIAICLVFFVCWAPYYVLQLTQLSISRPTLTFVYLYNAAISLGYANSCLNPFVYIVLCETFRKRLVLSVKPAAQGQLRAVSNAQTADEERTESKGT
Take `CN1C(=O)CCC12CCN(c1ccc3cc(NC(=O)c4ncc(-c5ccc(F)cc5)cn4)ccc3n1)C2` (stereo not drawn) [Example 1, 5-(4-Fluorophenyl)-N-[2-(1-methyl-2-oxo-1,7-diazaspiro[4,4]-nonan-7-yl)-6-quinolinyl]-2-pyrimidinecarboxamide]: the IC50 amounted to 8 nM.
With `CC(C)C(=O)N(C)[C@@H]1CCN(c2ccc3cc(NC(=O)c4ncc(-c5ccccc5)cn4)ccc3n2)C1` [Example 3, N-(2-[(3R)-3-[isobutyryl(methyl)amino]-1-pyrrolidinyl]-6-quinolinyl)-5-phenyl-2-pyrimidinecarboxamide], the IC50 was determined as 4.1 nM.
With `CN(C)C(=O)N(C)[C@@H]1CCN(c2ccc3cc(NC(=O)c4ncc(-c5ccccc5)cn4)ccc3n2)C1` [Example 9, N-(2-[(3R)-3-[[(dimethylamino)carbonyl](methyl)amino]-1-pyrrolidinyl]-6-quinolinyl)-5-phenyl-2-pyrimidinecarboxamide] the figure was 3.7 nM.

For the origin of these results see patent US7485647B2, “2-aminoquinoline derivatives” (Banyu Pharmaceutical Co., Ltd., priority 2003, dated 2009).
